We go through 77 molecules from patent US20200031778A1, “NOVEL 5-SUBSTITUTED IMIDAZOLYLMETHYL DERIVATIVES” (Bayer CropScience Aktiengesellschaft, priority 2016, published 2020).

This data set is described as follows: Log P by HPLC on reversed phase columns (EEC directive 79/831 Annex V.A8; methods [a], [b], [c]). Format: physicochemical. The procedure: Measurement of Log P values was performed according to EEC directive 79/831 Annex V.A8 by HPLC (High Performance Liquid Chromatography) on reversed phase columns with the following methods: • ^[a] Log P value is determined by measurement of LC-UV, in an acidic range, with 0.1% formic acid in water and acetonitrile as eluent (linear gradient from 10% acetonitrile to 95% acetonitrile). • ^[b] Log P value is determined by measurement of LC-UV, in a neutral range, with 0.001 molar ammonium acetate solution in water and acetonitrile as eluent (linear gradient from 10% acetonitrile to 95% acetonitrile). • ^[c] Log P value is determined by measurement of LC-UV, in an acidic range, with 0.1% phosphoric acid and acetonitrile as eluent (linear gradient from 10% acetonitrile to 95% acetonitrile).
If more than one Log P value is available within the same method, all the values are given and separated by “+”.
Calibration was done with straight-chain alkan2-ones (with 3 to 16 carbon atoms) with known Log P values (measurement of Log P values using retention times with linear interpolation between successive alkanones). Lambda-max-values were determined using UV-spectra from 200 nm to 400 nm and the peak values of the chromatographic signals.

Setting [1] is: reversed phase HPLC column, method [a]: LC-UV, acidic range, 0.1% formic acid in water and acetonitrile as eluent (linear gradient from 10% to 95% acetonitrile).

What is called chromatographic logP is a lipophilicity value derived from retention on a column.

`N#Cc1cncn1CC(O)(c1ccc(F)cc1Cl)C1(Cl)CC1` (centres unmarked) [I-236]: the LogP is 2.35^[a]. Still for that read-out and setting: the same measure for `N#Cc1cncn1CC(O)(CC1CC1)c1ccc(F)c(Cl)c1` (centres unmarked) [I-485]: 2.52^[a]; for `CCC(C)C(O)(Cn1cncc1C#N)c1ccc(Cl)cc1` (single isomer, unassigned) [I-326]: 2.78^[a]; for `N#Cc1cncn1CC(O)c1ccc(Oc2ccc(OC(F)(F)F)cc2)nc1C(F)(F)F` (centres unmarked) [I-137]: 3.12^[a]. Regarding `N#Cc1cncn1CC(O)(CC1CC1)c1c(F)cc(F)cc1F` (centres unmarked) [I-511], the LogP is 2.34^[a]. For `OC(Cn1cncc1F)(c1ccc(Br)cc1Cl)C1(F)CC1` (centres unmarked) [I-430], the LogP is 1.76^[a]. Still for that read-out and setting: the same measure for `CC(C)(C)C(O)(Cn1cncc1C#N)c1cc(F)c(F)c(F)c1` (centres unmarked) [I-462]: 2.76^[a]. Turning to `CC(C)(C)CC(O)(Cn1cncc1C#N)c1ccc(F)cc1Cl` (centres unmarked) [I-259], the LogP was 3.39^[a]. The same measure, in the same setting: as for `N#Cc1cncn1CC(O)c1ccc(Oc2ccc(Cl)cc2)cc1C(F)F` (centres unmarked) [I-72], the figure is 3.09^[a].

The molecule `CC(=O)c1cncn1CC(=O)c1ccc(Oc2ccc(Cl)cc2)nc1C(F)(F)F` [IX-119] showed a chromatographic logP under setting [1] of 3.13. With `N#Cc1cncn1CC(O)(c1ccc(C2CC2C2CC2)cc1Cl)C1(F)CC1` (centres unmarked) [I-388], the LogP is 3.60^[a]. The same measure, in the same setting: the same measure for `N#Cc1cncn1CC(O)c1cnc(Oc2ccc(C(F)(F)F)cc2)cc1Cl` (centres unmarked) [I-127]: 2.96^[a]; for `N#Cc1cncn1CC(O)(c1cc(F)c(Cl)c(Cl)c1)C1(F)CC1` (centres unmarked) [I-535]: 2.78^[a]; for `N#Cc1cncn1CC(O)c1ccc(Oc2ccc(Br)cc2)cc1C(F)(F)F` (centres unmarked) [I-36]: 3.46^[a]. For the molecule `Cc1ccccc1C(O)(Cn1cncc1C#N)C1(Cl)CC1` (centres unmarked) [I-278], the LogP is 1.29^[a]. Same read-out and setting: as for `CC(O)(Cn1cncc1C#N)c1cnc(Oc2ccc(Cl)nc2)cc1C(F)(F)F` (centres unmarked) [I-360], the figure is 2.43^[a]; as for `N#Cc1cncn1CC(O)(c1ccccc1C(F)(F)F)C1(F)CC1` (centres unmarked) [I-348], 2.28^[a]; as for `COc1ccc(C(O)(CC2CC2)Cn2cncc2C#N)c(Cl)n1` (centres unmarked) [I-548], 2.10^[a].

Consider `N#Cc1cncn1CC(O)(c1c(F)cc(F)cc1Cl)C1(F)CC1` (centres unmarked) [I-574], for which the LogP is 2.23^[a].

Take `CC(C)(C)CC(O)(Cn1cncc1C#N)c1ccc(C(F)(F)F)cc1F` (centres unmarked) [I-273]: the LogP is 3.55^[a]. `O=C(Cn1cncc1Br)c1ccc(Oc2ccc(I)cc2)cc1F` [IX-48] registered a chromatographic logP under setting [1] of 3.19. For `C[Si](C)(C)C=CC(O)(Cn1cncc1C(F)(F)F)C1(Cl)CC1` (centres unmarked) [I-690], the LogP is 3.85^[a].

`N#Cc1cncn1CC(O)(C#CCC1CCCCC1)C1CCC1` (centres unmarked) [I-592]: the LogP was 3.51^[a]. On to `N#Cc1cncn1CC(O)c1ccccc1Br` (centres unmarked) [I-140], for which the LogP is 1.62^[a]. With `N#Cc1cncn1CC(O)(c1cc(F)cc(Cl)c1Cl)C1(F)CC1` (centres unmarked) [I-568], the LogP is 2.49^[a]. Still for that read-out and setting: the same measure for `C[Si](C)(C)C#CC(O)(CC1CC1)Cn1cncc1C#N` (centres unmarked) [I-454]: 2.70^[a]; for `COC(Cn1cncc1C#N)c1ccc(Oc2ccc(Cl)cc2)cc1C(F)(F)F` (centres unmarked) [I-81]: 4.15^[a]. Same read-out and setting: the same measure for `CC(C)(C)C(O)(C=CCC1CCCCC1)Cn1cncc1C#N` (centres unmarked) [I-673]: 4.05^[a]; for `OC(Cn1cncc1F)c1ccc(Oc2ccc(Cl)cc2)cc1C(F)(F)F` (centres unmarked) [I-98]: 2.39^[a]; for `C=CC(C)C(O)(Cn1cncc1C#N)C1(F)CC1` (centres unmarked) [I-375]: 1.94^[a]. Still for that read-out and setting: as for `Cc1ccc(C(O)(Cn2cncc2C#N)C2(Cl)CC2)c(Cl)c1` (centres unmarked) [I-331], the figure is 2.58^[a]; as for `N#Cc1cncn1CC(O)(c1cc(Cl)c(F)cc1Cl)C1(F)CC1` (centres unmarked) [I-575], 2.54^[a].

In the case of `N#Cc1cncn1CC(O)(c1ccc(C#CC2CCCC2)cc1F)C1(Cl)CC1` (centres unmarked) [I-649], the LogP was 3.99^[a]. Still for that read-out and setting: as for `CC(C)CCCC(O)(Cn1cncc1C#N)C1(F)CC1` (centres unmarked) [I-671], the figure is 2.82^[a]; as for `N#Cc1cncn1CC(O)(CC1CC1)c1cc(F)c(Cl)c(F)c1` (centres unmarked) [I-499], 2.73^[a].

Consider `CC(O)(Cn1cncc1Cl)c1ccc(Oc2ccc(C(F)(F)F)cc2)cc1` (centres unmarked) [I-161], for which the LogP is 2.51^[a]. Same read-out and setting: as for `N#Cc1cncn1CC(O)(C#CCC1CCCCC1)C1(F)CC1` (centres unmarked) [I-539], the figure is 3.11^[a]. Still for that read-out and setting: the same measure for `N#Cc1cncn1CC(O)c1ccc(Oc2ccc(Cl)cc2)cc1Cl` (centres unmarked) [I-22]: 3.19^[a]. On the same count and under the same terms, the same measure for `N#Cc1cncn1CC(O)(c1cc(F)ccc1Cl)C1(F)CC1` (centres unmarked) [I-439]: 2.16^[a]. For `N#Cc1cncn1CC(O)(c1ccc(Cl)c(F)c1F)C1(F)CC1` (centres unmarked) [I-637], the LogP was 2.41^[a]. Same read-out and setting: as for `CC(C)(C)CC(O)(Cn1cncc1C#N)c1ccc(F)cc1` (centres unmarked) [I-226], the figure is 2.90^[a]. The same measure, in the same setting: as for `OC(Cn1cncc1Cl)c1ccc(Oc2cccnc2)cc1Cl` (centres unmarked) [I-78], the figure is 1.13^[a].

With `OC(Cn1cncc1F)c1ccc(Oc2ccc(C(F)F)cc2)nc1C(F)(F)F` (centres unmarked) [I-148], the LogP was 2.20^[a].

As to `CC(O)(Cn1cncc1Cl)c1ccc(Oc2ccc(OC(F)(F)F)cc2)cc1Cl` (centres unmarked) [I-158], the LogP is 3.06^[a]. Take `OC(Cn1cncc1Cl)c1ccc(Oc2ccc(Cl)cc2)nc1C(F)(F)F` (centres unmarked) [I-34]: the LogP is 2.51^[a].

For `CCCCC(O)(Cn1cncc1C#N)c1ccc(C(F)(F)F)cc1` (centres unmarked) [I-277], the LogP was 2.94^[a]. Same read-out and setting: as for `CC(C)CC#CC(O)(CC1CC1)Cn1cncc1C#N` (centres unmarked) [I-451], the figure is 2.52^[a]; as for `N#Cc1cncn1CC(O)(c1ccc(Cl)c(Cl)c1F)C1(Cl)CC1` (centres unmarked) [I-630], 2.76^[a].

The molecule `C[Si](C)(C)C#CCOc1ccc(C(O)(Cn2cncc2C#N)C2(F)CC2)c(F)c1` (centres unmarked) [I-415, 3-[2-(1-fluorocyclopropyl)-2-[2-fluoro-4-(3-trimethylsilylprop-2-ynoxy)phenyl]-2-hydroxy-ethyl]imidazole-4-carbonitrile] gave a chromatographic logP (HPLC on reversed phase columns, method [a]) of 3.68. For `C[Si](C)(C)C#Cc1ccc(C(O)(Cn2cncc2C#N)C2(F)CC2)c(F)c1` (centres unmarked) [I-608], the LogP is 3.79^[a]. Consider `COC(Cn1cncc1C#N)c1ccc(Oc2ccccc2)cc1F` (centres unmarked) [I-100], for which the LogP was 3.23^[a]. `N#Cc1cncn1CC(O)(CCCC1CCCCC1)C1(F)CC1` (centres unmarked) [I-672]: the LogP is 3.71^[a]. Still for that read-out and setting: as for `CCCC(O)(Cn1cncc1C#N)c1ccc(F)cc1` (centres unmarked) [I-378], the figure is 2.21^[a]. Still for that read-out and setting: the same measure for `CCCCC(O)(Cn1cncc1C#N)c1ccc(F)cc1` (centres unmarked) [I-228]: 2.47^[a]; for `COC(C)(Cn1cncc1Br)c1ccc(Oc2ccc(Br)cc2)cc1C(F)(F)F` (centres unmarked) [I-200]: 3.89^[a]; for `N#Cc1cncn1CC(O)(C#Cc1cc(F)cc(F)c1)C1(Cl)CC1` (centres unmarked) [I-319]: 2.59^[a]. Still for that read-out and setting: as for `N#Cc1cncn1CC(O)(c1ccc(F)cc1C(F)(F)F)C1(F)CC1` (centres unmarked) [I-382], the figure is 2.46^[a]; as for `CCCC#Cc1ccc(C(O)(Cn2cncc2C#N)C2(F)CC2)c(Cl)c1` (centres unmarked) [I-641], 3.52^[a]. Regarding `Cc1cc(C(O)(Cn2cncc2C#N)C2(F)CC2)c(F)cc1Cl` (centres unmarked) [I-507], the LogP was 2.66^[a]. In the case of `CC(C)(C)C(O)(Cn1cncc1C#N)c1ccc(F)c(Br)c1` (centres unmarked) [I-509], the LogP is 2.97^[a]. With `CC(O)(Cn1cncc1C#N)c1cnc(Oc2ccc(Cl)cc2)cc1C(F)(F)F` (centres unmarked) [I-249], the LogP was 3.44^[a]. As for `OC(Cn1cncc1F)(c1ccc(Cl)cc1Br)C1(F)CC1` (centres unmarked) [I-431], the LogP was 1.73^[a]. Regarding `CCCCC(O)(Cn1cncc1C#N)c1ccc(C(F)(F)F)cc1Cl` (centres unmarked) [I-266], the LogP was 3.65^[a]. The same measure, in the same setting: as for `CC(O)(Cn1cncc1C(F)(F)F)c1ccc(Oc2ccc(Cl)cc2)cc1F` (centres unmarked) [I-205], the figure is 3.83^[a]; as for `COc1ccc(C(O)(Cn2cncc2C#N)C2(F)CC2)c(Cl)n1` (centres unmarked) [I-549], 1.99^[a]. Take `CC(C)(C)C(O)(Cn1cncc1C#N)c1cc(F)c(Cl)c(F)c1` (centres unmarked) [I-491]: the LogP was 3.01^[a].

Regarding `CC(C)C(O)(Cn1cncc1C#N)C1(F)CC1` (centres unmarked) [I-380], the LogP is 1.78^[a]. For the molecule `N#Cc1cncn1CC(O)(CC1CCCCC1)c1ccc(Cl)cc1F` (centres unmarked) [I-468], the LogP was 3.80^[a].

As for `CC(O)(Cn1cncc1C#N)c1ccc(Oc2ccc(Cl)cc2)cc1Cl` (centres unmarked) [I-182], the LogP was 3.51^[a]. Same read-out and setting: the same measure for `N#Cc1cncn1CC(O)(c1ccc(F)cc1Br)C1(Cl)CC1` (centres unmarked) [I-387]: 2.48^[a]; for `CC(O)(Cn1cncc1Br)c1ccc(Oc2ccc(C(F)(F)F)cc2)cc1C(F)(F)F` (centres unmarked) [I-199]: 2.98^[a]; for `CC(C)(C)CC(O)(Cn1cncc1C#N)c1cccc(F)c1Cl` (centres unmarked) [I-368]: 3.15^[a].

On to `N#Cc1cncn1CC(O)(c1cc(Cl)c(Cl)cc1Cl)C1(F)CC1` (centres unmarked) [I-576], for which the LogP was 2.82^[a].

The molecule `CCC(=O)c1cncn1CC(=O)c1ccc(Oc2ccc(Br)cc2)cc1C(F)(F)F` [IX-139] had a chromatographic logP under setting [1] of 3.71. For the molecule `N#Cc1cncn1CC(O)(c1ccc(F)cc1F)C1CCCCC1` (centres unmarked) [I-481], the LogP is 3.05^[a]. Same read-out and setting: as for `OC(Cn1cncc1Br)c1ccc(Oc2ccc(Cl)nc2)nc1Cl` (centres unmarked) [I-17], the figure is 1.69^a; as for `C[Si](C)(CCC(O)(Cn1cncc1C#N)C1(F)CC1)c1ccccc1` (centres unmarked) [I-668], 3.30^[a].
